According to patent publication US20240050950A1, “GRADIENT-BASED MICROFLUIDIC CIRCUIT, DEVICE, AND METHOD FOR PERFORMING AN ASSAY” (priority 2020, published 2024):
Like-named read-outs stand apart in the source and are kept apart here.

What was measured:
[1] = system: E. coli, S. aureus, S. uberis, and K. pneumoniae; assay: MVM2 antimicrobial R/S profile, bovine mastitis clinical isolates; format: cell-based; conditions: MVM2 platform, FIG. 32
Text: Bovine with mastitis disease was also used to test the MVM^2 platform for deciphering their antimicrobial resistant/susceptibility profile. These antibiotics were chosen to investigate the most common and important antibiotics' mechanisms of action, including the disruption of bacterial cell wall and membrane synthesis, binding to RNA/DNA and interrupting nucleic acid replication, and inhibition of protein synthesis by binding to ribosome. FIG. 32 contains the following information: (i) the type of bacteria and tested antibiotic can be found at the left and right sides, respectively; (ii) each row includes 37 squares, as labeled at the top and have been categorized in 4 different categories—first square representing the microchamber as negative control (labeled with “N”), and every next twelve squares as respectively representing low, medium, and high positive ranges of antibiotic concentrations; (iii) the low, medium, and high ranges are included the concentration ranges of 0.1-1, 1-10, and 10-100 μg/mL; (iv) there are three types of squares: dark red, dark pink or light pink. If bacteria is susceptible to a specific antibiotic (e.g., E. coli/cefuroxime pair, see FIG. 32), below MIC (shown by dark pink color), bacteria can survive and grow causing more resazurin reduction (shown by dark red). At concentrations greater than the MIC, the bacterial growth stopped as shown by light pink color. The dark pink squares also show the microchambers which antimicrobial susceptibility was monitored at different trials. […].

E. coli = assay: MVM2 antimicrobial R/S profile, bovine mastitis E. coli isolate; format: cell-based; conditions: MVM2 platform, 0.1-100 μg/mL, FIG. 32
Text: Bovine with mastitis disease was also used to test the MVM^2 platform for deciphering their antimicrobial resistant/susceptibility profile. These antibiotics were chosen to investigate the most common and important antibiotics' mechanisms of action, including the disruption of bacterial cell wall and membrane synthesis, binding to RNA/DNA and interrupting nucleic acid replication, and inhibition of protein synthesis by binding to ribosome. FIG. 32 contains the following information: (i) the type of bacteria and tested antibiotic can be found at the left and right sides, respectively; (ii) each row includes 37 squares, as labeled at the top and have been categorized in 4 different categories—first square representing the microchamber as negative control (labeled with “N”), and every next twelve squares as respectively representing low, medium, and high positive ranges of antibiotic concentrations; (iii) the low, medium, and high ranges are included the concentration ranges of 0.1-1, 1-10, and 10-100 μg/mL; (iv) there are three types of squares: dark red, dark pink or light pink. […] The dark pink squares also show the microchambers which antimicrobial susceptibility was monitored at different trials. […]

E. coli 541-15 [2] = format: cell-based
Method: To perform a small-molecule-based biological assay in the MVM^2 platform, four main steps to load the reagents are followed. Step-i involves loading a suspension of the biological species (often with a fluorescent chemical indicator) into the MVM^2 platform so that it is uniformly distributed throughout (see FIG. 6C(i) and FIGS. 11A-D for more details; this step mainly takes ˜3-5 min). In step-ii, small-molecule solutions at C0, 0.1 C0, and 0.01 C0 concentrations are loaded into the high, medium, and low positive main-channels, respectively, which diffuse into the corresponding microchambers through the connected side-channels (see FIG. 6C(ii) and FIGS. 12A-D for more details; this step mainly takes as equal as the small-molecule loading time).
Resazurin (5 wt %) was also added to the bacterial suspension to allow monitoring of the bacterial cell metabolism through an irreversible resazurin-resorufin enzymatic reduction reaction (i.e., with increasing bacterial growth, the higher resazurin reduction results in greater fluorescent intensity).
To further confirm these findings based on the bacterial cell metabolism obtained from resazurin reduction, the red fluorescent intensities were correlated with the green fluorescence directly associated with the GFP-labeled bacterial growth in the corresponding microchambers (FIG. 9A and FIG. 9B). […] Moreover, the gold standard broth microdilution technique (measuring the bacterial cell density—OD600—vs. the incubation time) was used to validate the MVM^2 microfluidic device functionality (FIG. 9E).
Similarly, bacterial cell metabolism and growth using the resazurin reduction assay was probed and changes in the number of GFP-labeled bacteria during the assay was monitored, as shown in FIGS. 29A-B and FIGS. 30A-B, respectively.

E. coli 541-15 [3] = assay: Gold standard broth microdilution test (OD600 growth curves); format: cell-based
Method: Bacteria culture medium, strains, growth, and broth microdilution test. Non-selective Mueller-Hinton (“MET”) culture medium was used for all bacterial culture. In detail, a colony of bacteria pre-cultured on an LB agar plate (Corning, NY) was taken from a freshly streaked plate and suspended into 3 mL of MEI broth, and cultured at 37° C. overnight (˜12 h). The concentration of bacterial suspension was adjusted using a UV-Vis spectrophotometer (NanoDrop, Thermo-Fisher; Wilmington, DE). To do this, the overnight culture medium was diluted by 10-fold serial dilutions in non-selective MEI culture medium to find the appropriate final concentration (1×10^6 CFU/mL) for the antimicrobial susceptibility testing assay.
The gold standard broth microdilution test was performed by preparing the antibiotic solutions at their final concentrations from a stock solution of each examined antibiotic. A fresh 200 μL volume of each antibiotic solution (prepared in MEI culture medium) was pipetted into each microwell of a 96 MicroWell plate. […] Standardized growth curve analysis was performed using a Bioscreen C automated plate reader (Growth Curves USA, NJ) by measuring OD600. […]

E. coli LF82 = assay: MVM2 antimicrobial R/S profile, Crohn's disease clinical isolate; format: cell-based; conditions: MVM2 platform, 0.1-100 μg/mL, FIG. 9F
[4] = system: E. coli LF82, E. faecalis 44, and K. pneumoniae 578; assay: MVM2 antimicrobial R/S profile, isolates from ileal mucosa of human patients with Crohn's disease; format: cell-based; conditions: MVM2 platform, FIG. 9F
[5] = cited from earlier work
[6] = system: yrKHK S. cerevisiae yeast strain (DBY12549); format: cell-based, Saccharomyces cerevisiae; conditions: MVM2 platform
Method: Yeast culture medium, strains, and growth. Yeast cell growth and standard laboratory manipulations were performed as described (Guthrie and Fink, “Guide to Yeast Genetics and Molecular and Cellular Biology,” Methods in Enzymol. Part C 351 Gulf Professional Publishing (2002), which is hereby incorporated by reference in its entirety). All media used was either minimal medium (YNB; 0.67% yeast nitrogen base without amino acids plus 2% indicated carbon sources) or rich medium (YP; 2% bacto peptone, 1% yeast extract, 2% indicated carbon sources). Additionally, for fluorescence microscopy, low-fluorescence medium was used (standard minimal medium with 2% glucose, except YNB is prepared without riboflavin or folic acid to reduce background fluorescence) (Sheff and Thorn, “Optimized Cassettes for Fluorescent Protein Tagging in Saccharomyces cerevisiae,” Yeast 21:661-670 (2004), which is hereby incorporated by reference in its entirety). The yeast strains used in this study were DBY12000 and DBY12549. DBY12000 is a wild-type yeast strain (i.e., WT) with a genotype of MATa prototrophic HAP1^+ derivative of FY4. DBY12549 or yrKHK is the mutant of the wild-type yeast strain, which is sensitive to fructose and has a genotype of MATa HAP1^+ can1Δ::TDH3pr-yrKHK.
Then, as an example, the platform was used to study recessive human metabolic diseases, specifically measuring sugar-phosphate toxicity. […]. The data obtained using the MVM^2 platform precisely pinpointed the binary ‘Yes/No’ sensitivity response of the yrKHK strain to fructose (Yes) and glucose (No), as shown in FIGS. 35A-C and FIGS. 36A-C, respectively.
In this case, the functionality and validity of the MVM^2 platform was used to test for these known “eukaryote cells/sugars” pairs. Consequently, sugars (fructose and glucose) were chosen as the small molecules to show the feasibility of testing small molecules on eukaryotic cells in the MVM^2 platform. A wild-type S. cerevisiae, DBY12000, yeast strain (namely, WT) and its genetically modified DBY12549 mutant (called yrKHK) were chosen.. […]

[7] = system: wild-type S. cerevisiae strain (DBY12000); assay: Sugar test in MVM2 platform, 10 h yeast culture; format: cell-based, Saccharomyces cerevisiae; conditions: 0.007-7%
Method: Yeast culture medium, strains, and growth. Yeast cell growth and standard laboratory manipulations were performed as described (Guthrie and Fink, “Guide to Yeast Genetics and Molecular and Cellular Biology,” Methods in Enzymol. Part C 351 Gulf Professional Publishing (2002), which is hereby incorporated by reference in its entirety). All media used was either minimal medium (YNB; 0.67% yeast nitrogen base without amino acids plus 2% indicated carbon sources) or rich medium (YP; 2% bacto peptone, 1% yeast extract, 2% indicated carbon sources). Additionally, for fluorescence microscopy, low-fluorescence medium was used (standard minimal medium with 2% glucose, except YNB is prepared without riboflavin or folic acid to reduce background fluorescence) (Sheff and Thorn, “Optimized Cassettes for Fluorescent Protein Tagging in Saccharomyces cerevisiae,” Yeast 21:661-670 (2004), which is hereby incorporated by reference in its entirety). The yeast strains used in this study were DBY12000 and DBY12549. DBY12000 is a wild-type yeast strain (i.e., WT) with a genotype of MATa prototrophic HAP1^+ derivative of FY4. […]
Wild-type vs. Glucose (outcome: not sensitive): In FIGS. 37A-D and FIG. 38, the WT yeast strain exposed with glucose and fructose, respectively. The yeast growth was monitored for any “yeast/sugar” pair within 10 h culture at two time points (t=0 and 10 h). […]

yrKHK strain = conditions: reported elsewhere; cited from earlier work
WT strain = conditions: reported elsewhere; cited from earlier work
[8] = Table 1, antimicrobial agents/drugs

With `CO/N=C(\C(=O)N[C@@H]1C(=O)N2C(C(=O)O)=C(COC(N)=O)CS[C@H]12)c1ccco1` [cefuroxime] the “effectiveness among tested antibiotics” value [1] was “most effective” and the susceptibility/resistance outcome (E. coli) was “susceptible”.

In the case of `CCn1cc(C(=O)O)c(=O)c2ccc(C)nc21` [Nalidixic acid], the “effectiveness among tested antibiotics” value [1] is reported as “most effective”.

For Gentamicin, the susceptibility/resistance outcome (E. coli 541-15 [2]) was “susceptible”, the MIC (E. coli 541-15 [2]; MVM2 platform, 4 h at 37° C., n=5) was 2.82 ± 0.68 µg/mL and the MIC (E. coli 541-15 [3]; n=5) was 3 ± 2 µg/mL. For the same molecule, the susceptibility/resistance outcome (E. coli LF82) was “susceptible”, the “effectiveness among tested antibiotics” value [4] was “most effective” and the “effectiveness among tested antibiotics” value [1] was “most effective”.

For `CCC[C@@H]1C[C@@H](C(=O)N[C@@H]([C@H]2O[C@H](SC)[C@H](O)[C@@H](O)[C@H]2O)[C@@H](C)O)N(C)C1` [Lincomycin], the “effectiveness among tested antibiotics” value [1] is listed as “not effective”, the susceptibility/resistance outcome (E. coli) is listed as “resistance” and the Molar volume [5, 8] is listed as 313.2 ± 5.0 cm^3.

With `O=C(CO)[C@@H](O)[C@H](O)[C@H](O)CO` [D-fructose] the “binary Yes/No sensitivity response” value ([6]; 0.007-7 wt %) was “Yes”, the critical sensitivity concentration ([6]; 10 h) was 1.13 wt % and the “concentration range within which yeast growth is stopped” value ([6]; microchambers R8-R12, 10 h) was 0.7-1.113 wt %. The “outcome (sensitivity)” value [7] was “not sensitive”, the sensitivity/resistance (yrKHK strain) was “sensitive” and the sensitivity/resistance (WT strain) was “resistant”. The Molar volume ([5]; Table 3, antifungal drugs and other molecules) was 113.3 cm^3.

In the case of `CC1(C)S[C@@H]2[C@H](NC(=O)[C@H](N)c3ccccc3)C(=O)N2[C@H]1C(=O)O` [D-(−)-α-Aminobenzylpenicillin], the susceptibility/resistance outcome (E. coli 541-15 [2]; MVM2 platform, 0.1-100 μg/mL, 4 h) is reported as “resistance”, the susceptibility/resistance outcome (E. coli 541-15 [3]) is reported as “resistance” and the susceptibility/resistance outcome (E. coli LF82) is reported as “resistance”. The Molar volume [5, 8] was 239.3 ± 5.0 cm^3.

B1: Pegfilgrastim (protein, UniProt P09919 31-207, looked up)
Granulocyte …: TPLGPASSLPQSFLLKCLEQVRKIQGDGAALQEKLVSECATYKLCHPEELVLLGHSLGIPWAPLSSCPSQALQLAGCLSQLHSGLFLYQGLLQALEGISPELGPTLDTLQLDVADFATTIWQQMEELGMAPALQPTQGAMPAFASAFQRRAGGVLVASHLQSFLEVSYRVLRHLAQP
modifications: N-terminal methionine; PEG
For B1, the Molar volume ([5]; Table 2, anticancer drugs) is given as 252.4 ± 3.0 cm^3.
